Test results from paper PMC9150102 (Journal of Medicinal Chemistry, 2022).

System: STZ diabetic rats
Assay: Echocardiography (hemodynamics) in STZ diabetic rats during i.v. infusion
Type: in vivo, rat
Protocol: Drug effects reached a plateau at 15 min of infusion; 10 min after discontinuation of the infusion, most echo indexes affected by the compound returned to the basal level.
Echocardiographic parameters were measured before (basal) and at 15 and 30 min during drug infusion and 10 min after drug interruption under urethane anesthesia. Data are the mean ± SEM; all the results of echocardiographic indexes are summarized in Table S2; N = 13; *p < 0.05 (one-way RM ANOVA).
Diabetes was induced in Sprague Dawley male rats (150–175 g) by a single i.v. STZ group (50 mg/kg in citrate buffer) injection in the tail vein. Control (healthy group) rats received vehicle (citrate buffer).
Rats were studied by transthoracic echocardiographic under anesthesia (1.25 g/kg urethane, i.p). Left-ventricular end-diastolic (LVEDD) and end-systolic (LVESD) diameter, posterior wall (PWT), and interventricular septal thickness (IVST) were measured according to the American Society of Echocardiography guidelines.[16] FS was calculated as FS = (LVEDD – LVESD)/LVEDD. Trans-mitral flow velocity was measured (pulsed Doppler) to obtain early and late filling velocities (E and A waves) and E wave deceleration time (DT). […]
Hemodynamic studies in rats with diabetic cardiomyopathy
Control (healthy group) rats received STZ vehicle (citrate buffer). […]
were considered diabetic9.
Two-dimensionally guided M-mode recordings were […]
the American Society of Echocardiography guidelines13. Fractional shortening was calculated as FS = […]
E wave deceleration time (DT). […]
jugular vein for drug infusion in rats. Rats were randomly submitted to an echocardiographic study […]
intravenous infusion at the dose of 0.2 mg/kg/min. Echo parameters were measured at 15 and 30 min after infusion start and 10 min after drug interruption under urethane anesthesia. Data are mean ± SEM. *p<0.05 vs basal (one-way ANOVA for repeated measurements). […]
basal after 15 min after 30 min after 10 min

[1] = i.v. infusion 0.2 mg/kg/min, after 15 min
[2] = i.v. infusion 0.2 mg/kg/min, after 30 min

## C[C@]12CC[C@H](CCCC(=O)O)C[C@@H]1[C@@H](O)C[C@@H]1[C@@H]2CC[C@]2(C)C(=O)CC[C@@H]12 [Compound 5]
10 min after drug interruption
  CO: 153,2±10,67 ml/min
  DT: 52,4±4,36 ms
  DT/E: 68,2±6,13 s2/mm
  E/A: 1,37±0,06
  E/DT: 16,5±1,78 m/s2
  E/e': 40,22±0,82
  EF: 92,66±1,05%
  FS: 61,3±2,05%
  HR: 228±10 bpm
  IVSTd: 1,68 ± 0,07 mm
  IVSTs: 2,55 ± 0,10 mm
  LVEDD: 6,84 ± 0,17 mm
  LVESD: 2,64 ± 0,17 mm
  PWTd: 1,17 ± 0,07 mm
  PWTs: 2,42 ± 0,10 mm
  SV: 0,68±0,05 ml
  a': 26,22±1,31 mm/s
  e': 19,4±0,60 mm/s
  e'/a': 0,76±0,047
  s': 20,6±0,53 mm/s
[1]
  CO: 177,2±11,27 ml/min
  DT: 42,46±2,83 ms
  DT/E: 49,52±3,44 s2/mm
  E/A: 1,36±0,05
  E/DT: 21,49±1,61 m/s2
  E/e': 37,49±1,2
  EF: 90,68±1,4%
  FS: 58,1±2,38%
  HR: 268±15 bpm
  IVSTd: 1,81±0,08 mm
  IVSTs: 2,34±0,10 mm
  LVEDD: 6,86±0,17 mm
  LVESD: 2,87±0,18 mm
  PWTd: 1,16±0,07 mm
  PWTs: 2,59±0,09 mm
  SV: 0,68±0,05 ml
  a': 29,13±1,82 mm/s
  e': 23,33±0,73 mm/s
  e'/a': 0,84±0,07
  s': 22,4±0,86 mm/s
[2]
  CO: 175,15±9,4 ml/min
  DT: 42,15±2,74 ms
  DT/E: 48,51±4,56 s2/mm
  E/A: 1,34±0,06
  E/DT: 23,18±2,32 m/s2
  E/e': 37,45±1,24
  EF: 92,19±1,18%
  FS: 60,7±2,31%
  HR: 252±14 bpm
  IVSTd: 1,71±0,1 mm
  IVSTs: 2,55±0,13 mm
  LVEDD: 6,94±0,15 mm
  LVESD: 2,73±0,18 mm
  PWTd: 1,22±0,07 mm
  PWTs: 2,53±0,10 mm
  SV: 0,71±0,04 ml
  a': 28,94±1,47 mm/s
  e': 24,24±0,65 mm/s
  e'/a': 0,86±0,05
  s': 21,8±0,78 mm/s
i.v. infusion at a single dose
  systolic function: did not affect systolic function significantly
